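Method: 48-hour compound exposure of cells in 96-well plates, five concentrations, linear interpolation of endpoints. At the GI50, growth is halved. TGI: concentration producing complete growth inhibition.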

Test systems include K-562 leukemia; SF-539 CNS; NCI-H226 lung; M14 melanoma; RPMI-8226 leukemia; HCC-2998 colon; BT-549 breast; MDA-MB-435; UACC-257 melanoma; OVCAR-8 ovarian.
Common to all, as to test: inhibition of tumour cell growth, NCI panel, 48 h

For `Fc1ccc([C@@H]2CCNC[C@H]2COc2ccc3c(c2)OCO3)cc1`, the GI50 in the test on K-562 leukemia is 2.32 µM; with SF-539 CNS it was 12.8 µM; in the test with NCI-H226 lung, 13.7 µM; in the test on M14 melanoma, 2.93 µM; in the test with RPMI-8226 leukemia, 2.4 µM; in the test with HCC-2998 colon it was 2.1 µM. Besides, the figures for the GI50 in the test on BT-549 breast, in the test on MDA-MB-435 and in the test with UACC-257 melanoma were 12.2 µM, 2.31 µM and 11.2 µM, respectively. Also, the TGI in the test on K-562 leukemia worked out at 6.24 µM; in the test on SF-539 CNS it was 25.6 µM; with NCI-H226 lung, 29.9 µM; in the test with M14 melanoma it was 11.1 µM; with RPMI-8226 leukemia, 8.9 µM; in the test on HCC-2998 colon it was 4.39 µM. For the same compound, the TGI with BT-549 breast came out at 26.1 µM; in the test on MDA-MB-435, 7.96 µM; with UACC-257 melanoma, 24.6 µM.

As for `COc1ccc(-c2nc(-c3ccccn3)c(-c3ccccn3)n2CC(C)C)cc1OC1CCCC1`, the GI50 with K-562 leukemia was 6.37 µM; in the test with OVCAR-8 ovarian it was 17.3 µM; in the test with SF-539 CNS it was 33.8 µM; in the test on NCI-H226 lung, 21.3 µM; in the test on M14 melanoma, 22.7 µM; with RPMI-8226 leukemia it was 27.4 µM. Besides, the GI50 with BT-549 breast was 50 µM; in the test with MDA-MB-435 it was 31.3 µM; in the test with UACC-257 melanoma it was 26.2 µM. Further, the TGI in the test on K-562 leukemia is greater than 165 µM; with OVCAR-8 ovarian it was 158 µM; in the test on SF-539 CNS, 99.7 µM; with NCI-H226 lung, greater than 165 µM; with M14 melanoma, 114 µM; in the test on RPMI-8226 leukemia, 80.5 µM. Besides, the TGI in the test on BT-549 breast was greater than 165 µM; in the test with MDA-MB-435 it was greater than 165 µM; in the test with UACC-257 melanoma, 95.3 µM.

`COc1cc2cnc(-c3ccccc3)cc2cc1OC`: the TGI in the test on K-562 leukemia is 78.3 µM; in the test on OVCAR-8 ovarian, greater than 100 µM; in the test on SF-539 CNS, greater than 100 µM; in the test with NCI-H226 lung, 45.8 µM; in the test on M14 melanoma it was greater than 100 µM; in the test on RPMI-8226 leukemia, 36 µM. In addition, the TGI in the test with BT-549 breast turned out to be 68.6 µM; with MDA-MB-435, 67.3 µM; in the test with UACC-257 melanoma it was 53.3 µM.

Regarding `COc1cc(OC)c(F)c(COc2cnc(Nc3cnn(CCO)c3)nc2)c1F`, the GI50 in the test with K-562 leukemia is 0.343 µM; in the test with OVCAR-8 ovarian it was 2.24 µM; in the test on SF-539 CNS, 0.275 µM; with NCI-H226 lung, 0.343 µM; with RPMI-8226 leukemia it was 1.03 µM; in the test with HCC-2998 colon, 2.51 µM. For the same compound, the GI50 was 0.177 µM in the test on BT-549 breast, 0.2 µM in the test with MDA-MB-435 and 1.45 µM in the test on UACC-257 melanoma. For the same compound, the TGI is greater than 100 µM with K-562 leukemia; greater than 100 µM with OVCAR-8 ovarian; 2.17 µM in the test with SF-539 CNS; greater than 23.9 µM in the test with NCI-H226 lung; greater than 100 µM in the test on RPMI-8226 leukemia; greater than 100 µM in the test with HCC-2998 colon. Besides, the values for the TGI with BT-549 breast, in the test on MDA-MB-435 and in the test on UACC-257 melanoma were greater than 100 µM, 0.59 µM and greater than 100 µM, respectively.

For `COc1cnc2c(c1)C(=O)c1c-2n(CCCNCCN2CCOCC2)c(=O)c2cc([N+](=O)[O-])ccc12`, the GI50 with K-562 leukemia was 0.226 µM; with OVCAR-8 ovarian it was 0.174 µM; with SF-539 CNS it was 0.311 µM; with M14 melanoma, 0.0689 µM; in the test on RPMI-8226 leukemia, 0.171 µM; in the test on HCC-2998 colon it was 0.303 µM. Further, the GI50 with BT-549 breast was 0.286 µM; with MDA-MB-435, 0.42 µM; with UACC-257 melanoma, 0.586 µM. Also, the TGI with K-562 leukemia was 2.59 µM; with OVCAR-8 ovarian, 10.2 µM; in the test with SF-539 CNS, 1.32 µM; in the test on M14 melanoma, 1.52 µM; in the test on RPMI-8226 leukemia, 1.55 µM; in the test on HCC-2998 colon, 1.54 µM. In addition, the figures for the TGI in the test on BT-549 breast, in the test on MDA-MB-435 and with UACC-257 melanoma were 4.13 µM, 15.4 µM and 13.3 µM, respectively.

`O=C(c1ccco1)c1nc2cc(C(F)(F)F)ccc2[n+]([O-])c1C(F)(F)F`: the GI50 with K-562 leukemia is 48.9 µM; in the test with OVCAR-8 ovarian, greater than 100 µM; in the test with SF-539 CNS, 81.8 µM; with M14 melanoma it was 43.8 µM; in the test on RPMI-8226 leukemia, 20.3 µM; in the test on HCC-2998 colon, greater than 100 µM. Moreover, the GI50 was 63 µM in the test with BT-549 breast, 37 µM in the test with MDA-MB-435 and 69.8 µM with UACC-257 melanoma. Moreover, the TGI with K-562 leukemia, in the test on OVCAR-8 ovarian, in the test on SF-539 CNS, in the test on M14 melanoma, in the test on RPMI-8226 leukemia and with HCC-2998 colon was greater than 100 µM throughout. For the same compound, the TGI with BT-549 breast, in the test on MDA-MB-435 and with UACC-257 melanoma was greater than 100 µM throughout.

As for `CC[C@H]1CN(C)[C@H]2Cc3c([nH]c4ccccc34)C(=O)C[C@H]1C2C(=O)OC` (stereo partly drawn), the TGI with OVCAR-8 ovarian, with SF-539 CNS, in the test on NCI-H226 lung, in the test with M14 melanoma, with RPMI-8226 leukemia and in the test on HCC-2998 colon was greater than 100 µM each time. Besides, the TGI in the test on BT-549 breast, in the test with MDA-MB-435 and with UACC-257 melanoma was greater than 100 µM in each case.

With `COc1ccc2c(c1)[nH]c(=O)c1c3cc(OC)c(OC)cc3cn21`, the GI50 in the test with OVCAR-8 ovarian was 0.0193 µM; in the test with SF-539 CNS, 0.0175 µM; with NCI-H226 lung, 0.0701 µM; in the test on M14 melanoma, less than 0.01 µM; in the test with RPMI-8226 leukemia, less than 0.0134 µM; with HCC-2998 colon it was less than 0.01 µM. The figures for the GI50 in the test with BT-549 breast, in the test with MDA-MB-435 and in the test on UACC-257 melanoma were less than 0.024 µM, less than 0.01 µM and 14.7 µM, respectively. The TGI with OVCAR-8 ovarian came to 14.9 µM; with SF-539 CNS, 0.0618 µM; with NCI-H226 lung, 24.4 µM; with M14 melanoma, 11.8 µM; in the test on HCC-2998 colon, 0.0768 µM; with BT-549 breast, 0.861 µM. Moreover, the TGI in the test on MDA-MB-435 is less than 0.01 µM; in the test on UACC-257 melanoma, 29.5 µM.

As to `CC(=O)Nc1ccc(-c2csc(Nc3cccc(-c4csc(-c5ccccc5)n4)c3)n2)cc1`, the GI50 in the test on K-562 leukemia was 12.6 µM; with OVCAR-8 ovarian, 15.6 µM; in the test with SF-539 CNS it was 23.3 µM; with M14 melanoma it was 20.5 µM; in the test with RPMI-8226 leukemia it was 19.4 µM; in the test on HCC-2998 colon it was 12.5 µM. The GI50 in the test with BT-549 breast was 22.5 µM; with MDA-MB-435 it was 15.2 µM; in the test on UACC-257 melanoma, 19 µM. The TGI is 48.5 µM in the test with K-562 leukemia; greater than 50 µM in the test on OVCAR-8 ovarian; greater than 50 µM in the test with SF-539 CNS; greater than 50 µM with M14 melanoma; greater than 50 µM with RPMI-8226 leukemia; greater than 50 µM in the test on HCC-2998 colon. Also, the TGI in the test on BT-549 breast, in the test with MDA-MB-435 and in the test on UACC-257 melanoma was greater than 50 µM each time.

For the origin of these results see PubChem BioAssay (NCI).
